Data on eleven compounds can be found in US5686486A, “4-hydroxy-benzopyran-2-ones and 4-hydroxy-cycloalkyl[b]pyran-2-ones useful to treat retroviral infections” (priority 1995, dated 1997).

The target in assay [1] is T1, HIV-1 protease (Human immunodeficiency virus type 1 group M subtype B, UniProt P04585). The experiment in a line: biochemical. To be noted: read-out: HIV-1 FITC KI. Summed up:
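Ki from two-fold serial inhibitor dilutions (24–48 concentrations) with 40 nM HIV-1 protease stock and 200 μM substrate stock, 90 min at room temperature; stopped with avidin beads. Reference inhibitor run in parallel; Ki by nonlinear least-squares fit.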

Assay [2] deals with T1, HIV-1 protease. The assay can be described thus: biochemical. To be noted: for inhibition at 0.123 µM: read-out: HIV-1 Protease % Inhib, dose 0.123 uM; for inhibition at 0.37 µM: read-out: HIV-1 Protease % Inhib, dose 0.370 uM; for inhibition at 1.1 µM: read-out: HIV-1 Protease % Inhib, dose 1.100 uM; for inhibition at 3.3 µM: read-out: HIV-1 Protease % Inhib, dose 3.300 uM; for inhibition at 10 µM: read-out: HIV-1 Protease % Inhib, dose 10.000 uM; for inhibition at 30 µM: read-out: HIV-1 Protease % Inhib, dose 30.000 uM. In short, it runs like this:
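Biotinylated, FITC-labeled peptide substrate (20 μl of 0.2 μM) incubated with HIV-1 protease (10 μl of 0.1 μM) and compound in 0.1 M sodium acetate pH 5.5, 1.0 M NaCl, 0.05% NP-40, 1 h, room temperature, dark. Streptavidin beads then capture uncleaved substrate; filtered labeled product read by fluorescence, giving percent inhibition.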

The structures appear in SMILES notation.

On to `O=c1oc2c(c(O)c1C(c1cccc(NS(=O)(=O)Cc3ccccc3)c1)C1CC1)CCCCCC2` (stereo not shown) [Example 321, N-[3-[Cyclopropyl(5,6,7,8,9,10-hexahydro-4-hydroxy-2-oxo-2H-cycloocta[b]pyran-3-yl)methyl]phenyl]-benzenemethanesulfonamide], for which the Ki (usually the equilibrium dissociation constant of an inhibitor or competing ligand from its target) at HIV-1 protease [1] is 13.2 nM. Moreover, at HIV-1 protease [2], the inhibition at 0.123 µM stood at 22.2%, the inhibition at 0.37 µM is 62.1%, the inhibition at 1.1 µM came to 100% and the inhibition at 3.3 µM was determined as 113%. At HIV-1 protease [2], the inhibition at 10 µM is 119% and the inhibition at 30 µM was found to be 118%.
Take `CCCS(=O)(=O)Nc1cccc(C(c2c(O)c3c(oc2=O)CCCCCC3)C2CC2)c1` (stereo not shown) [Example 324, N-[3-[Cyclopropyl(5,6,7,8,9,10-hexahydro-4-hydroxy-2-oxo-2H-cycloocta[b]pyran-3-yl)methyl]phenyl]-1-propanesulfonamide]: the Ki on HIV-1 protease [1] was 4 nM. For the same compound, on HIV-1 protease [2], the inhibition at 0.123 µM was 44.3%, the inhibition at 0.37 µM was 87.5%, the inhibition at 1.1 µM stood at 103% and the inhibition at 3.3 µM was found to be 108%. On HIV-1 protease [2], the inhibition at 10 µM turned out to be 116% and the inhibition at 30 µM is 117%.
Regarding `O=C1c2ccccc2C(=O)N1CCS(=O)(=O)Nc1cccc(C(c2c(O)c3c(oc2=O)CCCCCC3)C2CC2)c1` (stereo not shown) [Example 327, N-[3-[Cyclopropyl(5,6,7,8,9,10-hexahydro-4-hydroxy-2-oxo-2H-cycloocta[b]pyran-3-yl)methyl]phenyl]-1,3-dihydro-1,3-dioxo-2H-isoindole-2-ethanesulfonamide], the Ki at HIV-1 protease [1] stood at 13.5 nM. In addition, on HIV-1 protease [2], the inhibition at 0.123 µM was 34.2%, the inhibition at 0.37 µM came out at 68.2%, the inhibition at 1.1 µM came to 94.8% and the inhibition at 3.3 µM turned out to be 105%. At HIV-1 protease [2], the inhibition at 10 µM was found to be 106% and the inhibition at 30 µM came out at 113%.
Turning to `O=c1oc2c(c(O)c1C(c1cccc(NS(=O)(=O)CCCCl)c1)C1CC1)CCCCCC2` (stereo not shown) [Example 331, 3-Chloro-N-[3-[cyclopropyl(5,6,7,8,9,10-hexahydro-4-hydroxy-2-oxo-2H-cycloocta[b]pyran-3-yl)methyl]phenyl]-1-propanesulfonamide], the Ki on HIV-1 protease [1] worked out at 4.8 nM. Besides, at HIV-1 protease [2], the inhibition at 0.123 µM amounted to 66.4%, the inhibition at 0.37 µM was 86.9%, the inhibition at 1.1 µM came out at 99.2% and the inhibition at 3.3 µM turned out to be 119%. Also, at HIV-1 protease [2], the inhibition at 10 µM is 121% and the inhibition at 30 µM was 105%.
Regarding `O=c1oc2c(c(O)c1C(c1cccc(NS(=O)(=O)c3cc(C(F)(F)F)cc(C(F)(F)F)c3)c1)C1CC1)CCCCCC2` (stereo not shown) [Example 332, N-[3-[Cyclopropyl(5,6,7,8,9,10-hexahydro-4-hydroxy-2-oxo-2H-cycloocta[b]pyran-3-yl)methyl]phenyl]-3,5-bis(trifluoromethyl)-benzenesulfonamide], the Ki on HIV-1 protease [1] is 47 nM. At HIV-1 protease [2], the inhibition at 0.123 µM was 23.1%, the inhibition at 0.37 µM came out at 39.3%, the inhibition at 1.1 µM came to 71.5% and the inhibition at 3.3 µM was 94%. Also, on HIV-1 protease [2], the inhibition at 10 µM was 109% and the inhibition at 30 µM amounted to 115%.
For `CC1(C)C2CCC1(CS(=O)(=O)Nc1cccc(C(c3c(O)c4c(oc3=O)CCCCCC4)C3CC3)c1)C(=O)C2` (stereo not shown) [Example 333, N-[3-[Cyclopropyl(5,6,7,8,9,10-hexahydro-4-hydroxy-2-oxo-2H-cycloocta[b]pyran-3-yl)methyl]phenyl]-7,7-dimethyl-2-oxo-bicyclo[2.2.1]heptane-1-methanesulfonamide], on HIV-1 protease [1], the Ki worked out at 104 nM. Also, on HIV-1 protease [2], the inhibition at 0.37 µM came out at 28.3%, the inhibition at 1.1 µM stood at 62.2%, the inhibition at 3.3 µM came to 82% and the inhibition at 10 µM was determined as 102%. Besides, on HIV-1 protease [2], the inhibition at 30 µM came out at 110%.
Consider `COc1cccc(Br)c1S(=O)(=O)Nc1cccc(C(c2c(O)c3c(oc2=O)CCCCCC3)C2CC2)c1` (stereo not shown) [Example 337, 2-Bromo-N-[3-[cyclopropyl(5,6,7,8,9,10-hexahydro-4-hydroxy-2-oxo-2H-cycloocta[b]pyran-3-yl)methyl]phenyl]-6-methoxy-benzenesulfonamide], for which the Ki on HIV-1 protease [1] was 37.9 nM. Further, at HIV-1 protease [2], the inhibition at 0.123 µM came to 10.1%, the inhibition at 0.37 µM came out at 47.9%, the inhibition at 1.1 µM is 93.6% and the inhibition at 3.3 µM amounted to 116%. At HIV-1 protease [2], the inhibition at 10 µM was found to be 111% and the inhibition at 30 µM stood at 112%.
On to `Cc1noc(C)c1S(=O)(=O)Nc1cccc(C(c2c(O)c3c(oc2=O)CCCCCC3)C2CC2)c1` (stereo not shown) [Example 338, N-[3-[Cyclopropyl(5,6,7,8,9,10-hexahydro-4-hydroxy-2-oxo-2H-cycloocta[b]pyran-3-yl)methyl]phenyl]-3,5-dimethyl-4-isoxazolesulfonamide], for which the Ki on HIV-1 protease [1] was 9.8 nM. On HIV-1 protease [2], the inhibition at 0.123 µM was 39.1%, the inhibition at 0.37 µM amounted to 80.1%, the inhibition at 1.1 µM is 86.3% and the inhibition at 3.3 µM came out at 96.8%. In addition, on HIV-1 protease [2], the inhibition at 10 µM is 102% and the inhibition at 30 µM is 100%.
`O=c1oc2c(c(O)c1C(c1cccc(NS(=O)(=O)c3cccc4nsnc34)c1)C1CC1)CCCCCC2` (stereo not shown) [Example 340, N-[3-[Cyclopropyl(5,6,7,8,9,10-hexahydro-4-hydroxy-2-oxo-2H-cycloocta[b]pyran-3-yl)methyl]phenyl]-2,1,3-benzothiadiazole-4-sulfonamide]: the Ki on HIV-1 protease [1] turned out to be 1.9 nM. Further, at HIV-1 protease [2], the inhibition at 0.123 µM turned out to be 77.8%, the inhibition at 0.37 µM was 93.2%, the inhibition at 1.1 µM was determined as 90.9% and the inhibition at 3.3 µM was 96.5%. At HIV-1 protease [2], the inhibition at 10 µM was determined as 101% and the inhibition at 30 µM was found to be 96.5%.
As to `CCc1ccc(S(=O)(=O)Nc2cccc(C(c3c(O)c4c(oc3=O)CCCCCC4)C3CC3)c2)cc1` (stereo not shown) [Example 341, N-[3-[Cyclopropyl(5,6,7,8,9,10-hexahydro-4-hydroxy-2-oxo-2H-cycloocta[b]pyran-3-yl)methyl]phenyl]-4-ethyl-benzenesulfonamide], the Ki at HIV-1 protease [1] came out at 5 nM. Further, at HIV-1 protease [2], the inhibition at 0.123 µM is 59.4%, the inhibition at 0.37 µM was 92.8%, the inhibition at 1.1 µM was 110% and the inhibition at 3.3 µM was found to be 107%. Further, at HIV-1 protease [2], the inhibition at 10 µM was found to be 120% and the inhibition at 30 µM worked out at 122%.
With `CCCCCCCCS(=O)(=O)Nc1cccc(C(c2c(O)c3c(oc2=O)CCCCCC3)C2CC2)c1` (stereo not shown) [Example 343, N-[3-[Cyclopropyl(5,6,7,8,9,10-hexahydro-4-hydroxy-2-oxo-2H-cycloocta[b]pyran-3-yl)methyl]phenyl]-1-octanesulfonamide], the Ki on HIV-1 protease [1] came to 6 nM. Also, on HIV-1 protease [2], the inhibition at 0.123 µM is 39.4%, the inhibition at 0.37 µM was determined as 75%, the inhibition at 1.1 µM was 91.2% and the inhibition at 3.3 µM amounted to 104%. Also, on HIV-1 protease [2], the inhibition at 10 µM turned out to be 112% and the inhibition at 30 µM was determined as 105%.
